Assay results published in patent US7678386B2, “Liposomes coated with selected antibodies that bind to aminophospholipids” (Board of Regents the University of Texas, priority 2002, dated 2010).
Like-named read-outs stand apart in the source and are kept apart here.

Experiments:
[1] = Anti-PS ELISA on PS-coated plates; format: binding
Procedure: The anti-PS ELISA used in the present studies is conducted as follows. Unless particular differences are specified, this is the format of the ELISA used throughout the studies of the present application.
The ELISA is exemplified using the antigen PS (P-6641 25 mg 10 mg/ml (solvent is Chloroform:MeOH 95:5) in 2.5 ml bottle). Other phospholipids can be used using the same protocol. The PS (or other phospholipids) stock solution should be aliquoted and stored in an airtight container at −30° C. The preferred 96 well plates are Dynatech U bottom Immulon 1 (from Dynatech Labs. Cat# 011-010-3550).
The standard blocking buffer used herein is 10% bovine serum dissolved in PBS. Other blocking solutions are suitable, but any detergents should be excluded from block and wash solutions. The primary antibody is the test sample or admixture. The preferred secondary antibody is goat, anti-mouse IgG-HRP. The developing solutions are: 10 ml of 0.2 M Na2PO4, 10 ml of 0.1 M citric acid, one 10 mg tablet of OPD, and 10 μl of hydrogen peroxide. The stop solution is 0.18 M H2SO4.
The protocol entails coating 96-well plate with PS as follows: dilute the PS stock solution in n-hexane to 10 μg/ml and mix well. Add 50 μl to each well and allow this to evaporate for one hour. Add 200 μl of 10% serum (or other blocking buffer) to each well, cover and maintain at room temperature for 2 hours or overnight at 4° C. Wash the plate three times with PBS. Add the primary antibody (dilute in blocking buffer) and incubate for 2 hours at 37° C. Wash three times with PBS. Add 100 μl/well of secondary antibody (typically goat. anti-mouse IgG-HRP or other appropriate secondary antibody) and incubate for 1 hour at 37° C. Wash the plate three times with PBS. Develop the ELISA by adding 100 μl of developing solution to each of the wells, develop for 10 minutes, then add 100 μl of stop solution to each plate and read the O.D. at 490 nm.

[2] = Competition of 9D2 and annexin V for binding to immobilized PS; settings: competitor in 10-fold molar excess
Procedure: Biotinylated 9D2 antibody and annexin V were prepared by incubating purified proteins with a 10-fold molar excess of N-hydroxysuccinimide biotin (Sigma, Mo.) for 1 h at room temperature. Free biotin was removed by dialysis against PBS. […] For competition studies, […] biotinylated proteins were premixed with a 10-fold molar excess of unmodified proteins. The mixtures were then added to PS-coated plates. Bound reagents were detected by streptavidin-HRP conjugate diluted 1:1000. The binding to PS of each reagent in the absence of a competitor was taken as the 100% value.

[3] = system: vascular endothelium of MDA-MB-231 tumors; experiment: Double staining study, orthotopic MDA-MB-231 tumors; format: in vivo, mouse; settings: biotinylated reagent i.v., one hour
Procedure: In further studies, mice bearing MDA-MB-231 tumors (0.3-0.7 cm^3 in volume) were injected intravenously with 50 μg of biotinylated 9D2, control IgM or annexin V (six mice per group). Biotinylated reagents were first incubated with streptavidin-Cy3 conjugate, washed in PBS. then incubated with MECA 32 antibody followed by FITC-tagged anti-rat IgG secondary antibody. Single images, taken with appropriate filters for Cy3 (red) and FITC (green) fluorescence respectively, were captured by digital camera and transferred to a computer. […] The same method was used to analyze tumors from mice injected with control rat IgM or saline. The percentage of vessels with localized 9D2 or annexin V was calculated as follows: mean number of yellow vessels per field divided by mean number of green (total) vessels multiplied by 100.
Double staining studies were also performed in which mice bearing orthotopic MDA-MB-231 breast tumors were injected intravenously with biotinylated 9D2 antibody, biotinylated control IgM or biotinylated annexin V. One hour later, the mice were exsanguinated, and their tumors were removed and frozen sections were cut. The tumor sections were then stained with Cy3-conjugated streptavidin to detect the biotinylated proteins and with FITC-conjugated MECA32 to detect vascular endothelium. […]

[4] = system: Factor Xa generation on IL-1α-stimulated bEnd.3 cells; experiment: Factor Xa formation induced by coaguligand (chromogenic assay); format: cell-based, mouse; settings: 10 μg per ml
Procedure: The ability of Annexin V to affect Factor Xa formation induced by coaguligand was determined by a chromogenic assay. IL-1α-stimulated bEnd.3 cells were incubated with anti-VCAM-•tTF and permeabilized by saponin. Annexin V was added at concentrations ranging from 0.1 to 10 μg/ml and cells were incubated for 30 min. before addition of diluted Proplex T. The amount of Factor Xa generated in the presence or absence of Annexin V was determined. Each treatment was performed in duplicate and repeated at least twice.

[5] = system: blood vessels of L540 tumors; experiment: Annexin V inhibition of coaguligand-induced thrombosis in vivo; parameters: species or system mouse
Procedure: The ability of Annexin V to inhibit coaguligand-induced thrombosis in vivo was examined in L540 Hodgkin-bearing SCID mice. Tumors were grown in mice and two mice per group (tumor size 0.5 cm in diameter) were injected intravenously via the tail vein with one of the following reagents: a) saline; b) 100 μg of Annexin V; c) 40 μg of anti-VCAM-1•tTF; d) 100 μg of Annexin V followed 2 hours later by 40 μg of anti-VCAM-1•tTF.
Four hours after the last injection mice were anesthetized and perfused with heparinized saline. Tumors were removed, fixed with 4% formalin, paraffin-embedded and stained with hematoxylene-eosin. The number of thrombosed and non-thrombosed blood vessels was counted and the percentage of thrombosis was calculated.

## Annexin V: high affinity PS binding ligand; natural ligand of anionic phospholipids and PE
[1]; MW used for conversion: IgM 900 kDa, IgG 150 kDa, Annexin V 36 kDa, read-out: EC50
  EC50: 2.77 nM
[1]; dilutions of tissue culture supernatants
  EC50: 0.100 µg/mL
[1]; from EC50 in nM
  Affinity vs. 3SB (-fold increased): 0.18 -fold
[1]; from EC50 in μg/ml
  Binding vs. 3SB (-fold increased): 4.68 -fold
[2]
  Binding (% Control) of biotinylated 9D2 to PS: 93%
  Binding (% Control) of biotinylated annexin V to PS: 8%
[3]
  MECA 32 positive vessels that bound the reagent: About 40%
[4]
  inhibition of factor Xa production: 58%
[5]; 100 μg Annexin V 2 hours before 40 μg coaguligand
  coaguligand-induced intravascular thrombosis and changes in tumor cell morphology: completely abolished
[5]; 100 μg Annexin V alone
  tumor morphology: did not alter tumor morphology
